Columns and labels:
IL17A = biological target: T1, IL17A (Homo sapiens, UniProt Q16552); experiment: Surface Plasmon Resonance (SPR) analysis of compound interactions with IL17A; settings: SPR binding to IL17A
T1 sequence (Q16552 24-155): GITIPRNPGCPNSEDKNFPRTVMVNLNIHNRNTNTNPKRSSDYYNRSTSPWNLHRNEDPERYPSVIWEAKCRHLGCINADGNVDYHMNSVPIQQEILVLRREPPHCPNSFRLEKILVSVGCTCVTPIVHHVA
Summary of the method: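 His-tagged IL17A captured on a Ni-NTA chip; five 2- or 3-fold compound dilutions from 50 μM injected for 180 s, 120 s dissociation, in HEPES-saline buffer with 0.5% DMSO. Baseline-subtracted sensorgrams fitted 1:1 for ka, kd and KD; Kd also derived from binding extent per concentration.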

[1] = system: IL-17-induced GROα secretion from HT-29 cells; experiment: HT-29 cellular assay (IL-17-induced GROα secretion); format: cell-based; settings: Homo sapiens
Protocol: To test the ability of a compound of the invention to neutralize or antagonize IL-17 bioactivity, the following cell-based assay was used. IL-17 can stimulate epithelial cells and other cells to secrete GROα. The ability of a compound of the invention to neutralize IL-17-induced GROα secretion from the human colorectal adenocarcinoma epithelial cell line HT-29 is tested in this assay.
HT-29 cells (human colorectal adenocarcinoma epithelial cells, ATCC #HTB-38), were maintained in culture/assay medium in tissue culture-treated flasks using standard techniques. HT-29 cells were grown in tissue culture flasks until they were 50-80% confluent on the day before the assay. The day before the assay, the cells were detached from the culture flasks with trypsin+EDTA. The trypsin was inactivated with complete assay medium. HT-29 cells were then centrifuged at 500×g for 5 minutes at room temperature. The cell pellet was then re-suspended in Defined Keratinocyte SFM (Invitrogen #10766019)+10% FCS and 50,000 HT-29 cells (in 100 μl) were added to each treatment well of the 96-well plates. The 96-well plates were placed in a tissue culture incubator (37° C., 5% CO2) overnight. The next day, the media was removed from the cells and the cells were washed twice with Defined Keratinocyte SFM. In a separate 96-well plate, compounds to be tested were serially diluted in Defined Keratinocyte SFM and run in triplicate in 100 μL total volume. To these compound samples were then added 100 μL of human IL-17 at a concentration of 20 ng/mL in Defined Keratinocyte SFM for serum-free assays. 150 μL of the compound/IL-17 mixture was then added to the cells from which the media has previously been removed. The cells were grown for 48 hours in Defined Keratinocyte SFM in a tissue culture incubator (37° C., 5% CO2).
At the end of the incubation, the plates are centrifuged (500×g for 5 minutes at room temperature), and the cell culture media is transferred to polypropylene 96-well plates. The supernatant was used neat in the ELISA. GROα levels are measured with a GROα sandwich ELISA (R+D Systems DuoSet #DY275E), as per the manufacturer's instructions. The ELISA plates were previously coated with mAb 275 (R+D Systems) at 4 μg/mL. GROα is detected using biotinylated goat anti-human GROα (R+D Systems BAF275) at 200 ng/mL using TMB as a substrate. At the end of the ELISA reactions, plates are read at 450 nm on a microplate reader and compared to a standard calibration curve.

[2] = biological target: T2, recombinant human IL17a (binding to its receptor IL17R) (Homo sapiens, UniProt Q16552); experiment: IL-17 competition ELISA I (IL17a coated, IL17R/Fc binding)
T2 construct: purchased R&D Systems 317-ILB (IL17a); 177-IR (IL17R/Fc)
T2 sequence (Q16552 20-155 limits assumed): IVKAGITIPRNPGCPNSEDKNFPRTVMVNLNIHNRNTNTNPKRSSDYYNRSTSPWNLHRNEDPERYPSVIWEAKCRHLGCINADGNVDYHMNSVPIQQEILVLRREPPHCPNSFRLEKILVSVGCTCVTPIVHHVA
Summary of the method: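 Plates coated with 20 nM recombinant human IL17a received compound dilutions and 12 nM IL17R/Fc (final) for 30 min at room temperature. Bound receptor was detected with HRP anti-human Fc and TMB, read at 450 nm. IC50 came from a 4-parameter logistic fit between no-competitor and blank controls.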

Row | SMILES | Kd (IL17A) | IC50 [1] | IC50 [2]
1 | COC(=O)[C@@H]1CCCCNC(=O)CNC(=O)[C@@H](Cc2ccc(NC(=O)[C@H](Cc3ccccc3F)NC(=O)Cc3ccccc3)cc2)NC(=O)CC2(CCCC2)CC(=O)N1 [Compound 108] | < 100 nM | 1000 to 10000 nM | –
2 | COC(=O)[C@H]1CCCCNC(=O)CNC(=O)[C@@H](Cc2ccc(NC(=O)[C@H](Cc3ccccc3Cl)NC(=O)Cc3ccccc3)cc2)NC(=O)CC2(CCCC2)CC(=O)N1 [Compound 141] | < 100 nM | 1000 to 10000 nM | –
3 | COC(=O)[C@H]1CCCCNC(=O)CNC(=O)[C@@H](Cc2ccc(NC(=O)[C@H](Cc3ccccc3Cl)NC(=O)c3ccccc3)cc2)NC(=O)CC2(CCCC2)CC(=O)N1 [Compound 142] | < 100 nM | 1000 to 10000 nM | –
4 | O=C1CNC(=O)[C@@H](Cc2ccc(NC(=O)[C@H](Cc3ccccc3F)NC(=O)Cc3ccccc3)cc2)NC(=O)CC2(CCCC2)CC(=O)N[C@H](C(=O)O)CCCCN1 [Compound 177] | < 100 nM | 1000 to 10000 nM | –
5 | O=C1CNC(=O)[C@@H](Cc2ccc(NC(=O)[C@H](Cc3ccccc3Cl)NC(=O)Cc3ccccc3)cc2)NC(=O)CC2(CCCC2)CC(=O)N[C@@H](C(=O)O)CCCCN1 [Compound 180] | < 100 nM | < 1000 nM | < 100 nM

The next lines start with results.

Row | Kd (IL17A) | IC50 [1] | SMILES | IC50 [2]
6 | 100 to 1000 nM | > 10000 nM | COC(=O)[C@H]1CCCCNC(=O)CCCNC(=O)[C@@H](Cc2ccc(NC(=O)[C@H](Cc3ccccc3F)NC(=O)Cc3ccccc3)cc2)NC(=O)CC2(CCCC2)CC(=O)N1 [Compound 107] | –
7 | 100 to 1000 nM | 1000 to 10000 nM | COC(=O)[C@@H]1CCCCNC(=O)CCNC(=O)[C@@H](Cc2ccc(NC(=O)[C@H](Cc3ccccc3F)NC(=O)Cc3ccccc3)cc2)NC(=O)CC2(CCCC2)CC(=O)N1 [Compound 109] | –
8 | 100 to 1000 nM | > 10000 nM | COC(=O)[C@@H]1CCCCNC(=O)CCCCNC(=O)[C@@H](Cc2ccc(NC(=O)[C@H](Cc3ccccc3F)NC(=O)Cc3ccccc3)cc2)NC(=O)CC2(CCCC2)CC(=O)N1 [Compound 110] | –
9 | < 100 nM | 1000 to 10000 nM | COC(=O)[C@@H]1CCCCNC(=O)CCCNC(=O)[C@@H](Cc2ccc(NC(=O)[C@H](Cc3ccccc3Cl)NC(=O)Cc3ccccc3)cc2)NC(=O)CC2(CCCC2)CC(=O)N1 [Compound 112] | –
10 | 100 to 1000 nM | > 10000 nM | COC(=O)[C@@H]1CCCCNC(=O)CCCNC(=O)[C@@H](Cc2ccc(NC(=O)[C@H](Cc3ccccc3Cl)NC(=O)c3ccccc3)cc2)NC(=O)CC2(CCCC2)CC(=O)N1 [Compound 113] | –
11 | < 100 nM | 1000 to 10000 nM | O=C1CNC(=O)[C@@H](Cc2ccc(NC(=O)[C@H](Cc3c(F)cccc3F)NC(=O)Cc3ccccc3)cc2)NC(=O)CC2(CCCC2)CC(=O)NCCCCCN1 [Compound 184] | –
12 | < 100 nM | 1000 to 10000 nM | O=C1CNC(=O)[C@@H](Cc2ccc(NC(=O)[C@H](Cc3ccccc3Br)NC(=O)Cc3ccccc3)cc2)NC(=O)CC2(CCCC2)CC(=O)NCCCCCN1 [Compound 187] | < 100 nM

Reference: patent US9284283B2, “Macrocyclic compounds for modulating IL-17” (ENSEMBLE THERAPEUTICS CORPORATION, priority 2012, dated 2016)
